Test results: PubChem BioAssay (NCI)
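Values below derive from 48-hour exposures of cells grown in 96-well plates, with endpoints linearly interpolated between the two concentrations bracketing the appropriate inhibition level. The concentration for 50% growth inhibition is given as GI50. TGI marks complete inhibition of growth.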

Key:
Assay in all cases: growth of human tumour cells (NCI), 48 h
[1] = test system: CAKI-1 renal
[2] = test system: NCI-H522 lung
[3] = test system: COLO 205 colon
[4] = test system: SR leukemia
[5] = test system: HOP-92 NSCLC
[6] = test system: SK-MEL-28 melanoma
[7] = test system: UACC-257 melanoma
[8] = test system: SNB-75 CNS
[9] = test system: BT-549 breast
[10] = test system: T-47D breast

SMILES	GI50 [1] [µM]	TGI [1] [µM]	GI50 [2] [µM]	TGI [2] [µM]	GI50 [3] [µM]	TGI [3] [µM]	TGI [4] [µM]	TGI [5] [µM]	GI50 [6] [µM]	TGI [6] [µM]	GI50 [7] [µM]	TGI [7] [µM]	TGI [8] [µM]	TGI [9] [µM]	TGI [10] [µM]
C/C(=N\NC(=O)c1ccccc1O)c1cccc(/C(C)=N/NC(=O)c2ccccc2O)n1.O=S(=O)([O-])[O-].[Fe+2]	> 100	> 100	> 100	> 100	> 100	> 100	> 100	> 100	> 100	> 100	> 100	> 100	> 100	–	–
CC(=O)OCC(=O)OC[C@H](OCc1ccccc1)[C@@H]1[C@H](OC(C)=O)C(=O)N1Cc1ccccc1	–	–	–	–	–	> 100	> 100	> 100	–	> 100	–	> 100	> 100	–	–
CN(C)c1c(C2OC(CO)C(O)C2O)c(=O)c1=O (stereo not drawn)	–	> 100	–	> 100	–	–	> 100	> 100	–	> 100	–	> 100	> 100	> 100	> 100
O=C(CSCC(=O)N/N=C\c1cccc([N+](=O)[O-])c1)N/N=C\c1cccc([N+](=O)[O-])c1	–	64.4	–	> 100	–	> 100	> 100	> 100	–	> 100	–	> 100	65.6	–	> 100
Nc1ncnc2c1ncn2C1CCC(CP(=O)(O)O)C1 (stereo not drawn)	–	–	–	–	–	> 100	–	–	–	> 100	–	> 100	–	–	> 100
O=C(c1ccc(Cl)cc1)c1ccc(OCCCOc2ccc(C(=O)c3ccc(Cl)cc3)cc2Cl)c(Cl)c1	–	> 100	–	> 100	–	> 100	> 100	> 100	–	> 100	–	> 100	> 100	–	–
COC(=O)c1cc(NC(=O)Cc2c[nH]c3ccccc23)cn1C	–	> 100	–	> 100	–	> 100	> 100	–	–	> 100	–	> 100	–	> 100	> 100
O=C(c1ccccc1)N1CCC(CC2(c3cc4ccccc4[nH]3)OCCO2)CC1	–	> 100	–	–	–	40.1	> 100	93	–	37.4	–	51.9	> 100	> 100	> 100
Cn1c2ccccc2c(=O)c2c(O)cc3c(c21)C=CC(C)(C)O3	–	> 10.1	–	> 25	–	> 25	–	> 25	–	> 25	–	> 25	24.9	–	–
COc1ccc(-c2c3c(n(C4OC(CO)C(O)C(O)C4O)c(=S)c2C#N)CCCC3)cc1 (stereo not drawn)	–	> 100	–	–	–	> 100	> 100	–	–	–	–	> 100	18.7	–	> 100
CC(=O)NCC1OC2COC(c3ccccc3)OC2C(NC(=O)c2ccccc2)C1OC(=O)c1ccccc1 (stereo not drawn)	–	> 100	–	–	–	> 100	–	> 100	–	> 100	–	> 100	> 100	> 100	> 100
CC1=CC[C@@]2(C)CC[C@](O)(C(C)C)C2C(OC(=O)c2ccccc2)C1 (stereo partly drawn)	–	44.9	–	33.2	–	43	97	29.7	–	58.4	–	35.1	35.8	–	42.6
COc1cccc(C2SC(N)=Nc3c2c(C)nn3C(=O)Cc2ccccc2)c1 (stereo not drawn)	–	> 100	–	> 100	–	> 100	> 100	–	–	> 100	–	> 100	> 100	> 100	> 100
OC(CN(CCCl)CCCl)C(O)C(O)C(O)CN(CCCl)CCCl (stereo not drawn)	–	> 100	–	> 100	–	> 100	> 100	> 100	–	> 100	–	> 100	–	> 100	> 100
C=CC1CN(C(=O)OCC)N(C(=O)OCC)C1CCc1ccccc1 (stereo not drawn)	–	> 100	–	> 100	–	> 100	> 100	> 100	–	> 100	–	> 100	> 100	–	> 100
CSCSCC(CO)NC(=O)/C(C)=C\c1c(C)[nH]c(=O)[nH]c1=O (stereo not drawn)	–	> 250	–	> 250	–	> 250	–	23.9	–	> 250	–	> 158	> 250	–	–
CC(C)CC(N)C(=O)Nc1ccc2ccccc2c1 (stereo not drawn)	–	> 100	–	> 100	–	> 100	> 100	–	–	> 100	–	> 100	> 100	> 100	> 100
CC(Nc1ccc(Cl)c(Cl)c1)c1ccncc1 (stereo not drawn)	–	97.8	–	37	–	31.4	–	54.8	–	> 100	–	> 100	97.7	86.3	> 100
CCOC(=O)/C(=N/Nc1ccccc1)N1C(=S)C=C(C)NN(C)C1=S	–	> 100	–	> 100	–	> 100	> 100	> 100	–	> 100	–	> 100	–	> 100	> 100
[B-][P+](CC[P+]1([B-])[C@@H](C)[C@@H](O)[C@H](O)[C@@H]1C)(c1ccccc1)c1ccccc1OC (stereo partly drawn)	–	30.4	–	26.2	–	32.6	–	33	–	32.7	–	20.3	28.3	–	37.3
COc1ccc(OC)c2c1C=CC(Br)=CC2	–	0.913	–	0.579	–	> 1	0.488	0.463	–	> 1	–	0.942	–	0.835	0.681
O=C1/C(=C/c2ccccc2[N+](=O)[O-])N=C(c2ccccc2)N1c1nc2ccccc2s1	–	> 100	–	40.1	–	–	34.3	52.1	–	> 100	–	> 100	64.6	49.4	76.6
Cc1c(N=C/C=C/c2ccccc2)c(=O)n(-c2ccccc2)n1C	–	> 100	–	> 100	–	> 100	–	> 100	–	39.8	–	> 100	–	58.1	62.4
Cn1cc2ccccc2c1-c1nc(F)nc(Oc2ccc3c(c2)CC[C@@H]2C3CC[C@@]3(C)C2C[C@H](O)[C@@H]3O)n1 (stereo partly drawn)	–	34.8	–	27.2	–	32.4	–	55.5	–	38.9	–	81.6	41.1	–	–
